Assay results taken from ChEMBL document CHEMBL5038625, “Application of the dual-tail approach for the design and synthesis of novel Thiopyrimidine-Benzenesulfonamide hybrids as selective carbonic anhydrase inhibitors” (Eur J Med Chem, 2022).

Key:
OVCAR-8 = assay: Antiproliferative activity against human OVCAR-8 cells assessed as cell growth inhibition at 10 uM incubated for 24 hrs by sulforhodamine B assay; type: functional; details: read-out: GI
Carbonic anhydrase 9 = Carbonic anhydrase 9 (Homo sapiens, UniProt Q16790); assay: Inhibition of human CA9 preincubated for 15 mins by phenol red dye based stopped flow CO2 hydration assay
U-251 = assay: Antiproliferative activity against human U-251 cells assessed as cell growth inhibition at 10 uM incubated for 24 hrs by sulforhodamine B assay; type: functional; details: read-out: GI
NCI-H23 = assay: Antiproliferative activity against human NCI-H23 cells assessed as cell growth inhibition at 10 uM incubated for 24 hrs by sulforhodamine B assay; type: functional; details: read-out: GI
SW-620 = assay: Antiproliferative activity against human SW-620 cells assessed as cell growth inhibition at 10 uM incubated for 24 hrs by sulforhodamine B assay; type: functional; details: read-out: GI
BT-549 = assay: Antiproliferative activity against human BT-549 cells assessed as cell growth inhibition at 10 uM incubated for 24 hrs by sulforhodamine B assay; type: functional; details: read-out: GI
A498 = assay: Antiproliferative activity against human A498 cells assessed as cell growth inhibition at 10 uM incubated for 24 hrs by sulforhodamine B assay; type: functional; details: read-out: GI
786-0 = assay: Antiproliferative activity against human 786-0 cells assessed as cell growth inhibition at 10 uM incubated for 24 hrs by sulforhodamine B assay; type: functional; details: read-out: GI
T47D [1] = assay: Antiproliferative activity against human T47D cells assessed as cell growth inhibition at 10 uM incubated for 24 hrs by sulforhodamine B assay; type: functional; details: read-out: GI
IGROV-1 = assay: Antiproliferative activity against human IGROV-1 cells assessed as cell growth inhibition at 10 uM incubated for 24 hrs by sulforhodamine B assay; type: functional; details: read-out: GI
SK-MEL-28 = assay: Antiproliferative activity against human SK-MEL-28 cells assessed as cell growth inhibition at 10 uM incubated for 24 hrs by sulforhodamine B assay; type: functional; details: read-out: GI
SF-539 = assay: Antiproliferative activity against human SF-539 cells assessed as cell growth inhibition at 10 uM incubated for 24 hrs by sulforhodamine B assay; type: functional; details: read-out: GI
OVCAR-3 = assay: Antiproliferative activity against human OVCAR-3 cells assessed as cell growth inhibition at 10 uM incubated for 24 hrs by sulforhodamine B assay; type: functional; details: read-out: GI
SNB-75 = assay: Antiproliferative activity against human SNB-75 cells assessed as cell growth inhibition at 10 uM incubated for 24 hrs by sulforhodamine B assay; type: functional; details: read-out: GI
CAKI-1 = assay: Antiproliferative activity against human CAKI-1 cells assessed as cell growth inhibition at 10 uM incubated for 24 hrs by sulforhodamine B assay; type: functional; details: read-out: GI
SR = assay: Antiproliferative activity against human SR cells assessed as cell growth inhibition at 10 uM incubated for 24 hrs by sulforhodamine B assay; type: functional; details: read-out: GI
MOLT-4 = assay: Antiproliferative activity against human MOLT-4 cells assessed as cell growth inhibition at 10 uM incubated for 24 hrs by sulforhodamine B assay; type: functional; details: read-out: GI
SF-268 = assay: Antiproliferative activity against human SF-268 cells assessed as cell growth inhibition at 10 uM incubated for 24 hrs by sulforhodamine B assay; type: functional; details: read-out: GI
SN12C = assay: Antiproliferative activity against human SN12C cells assessed as cell growth inhibition at 10 uM incubated for 24 hrs by sulforhodamine B assay; type: functional; details: read-out: GI
HCT-15 = assay: Antiproliferative activity against human HCT-15 cells assessed as cell growth inhibition at 10 uM incubated for 24 hrs by sulforhodamine B assay; type: functional; details: read-out: GI
MCF7 [2] = assay: Induction of apoptosis in human MCF cells assessed as late apoptotic cells measured after 48 hrs by Annexin-V-FITC/propidium iodide staining based flow cytometry (reference value: 0.82%); type: functional
HCT-116 = assay: Antiproliferative activity against human HCT-116 cells assessed as cell growth inhibition at 10 uM incubated for 24 hrs by sulforhodamine B assay; type: functional; details: read-out: GI
COLO 205 = assay: Antiproliferative activity against human COLO 205 cells assessed as cell growth inhibition at 10 uM incubated for 24 hrs by sulforhodamine B assay; type: functional; details: read-out: GI
MCF7 [3] = assay: Antiproliferative activity against human MCF7 cells assessed as cell growth inhibition at 10 uM incubated for 24 hrs by sulforhodamine B assay; type: functional; details: read-out: GI
NCI-H226 = assay: Antiproliferative activity against human NCI-H226 cells assessed as cell growth inhibition at 10 uM incubated for 24 hrs by sulforhodamine B assay; type: functional; details: read-out: GI
MCF7 [4] = assay: Cell cycle arrest in human MCF7 cells assessed as accumulation at sub G1 phase incubated for 48 hrs by propidium iodide staining based flow cytometric analysis (reference value: 1.09 %); type: functional
HCC 2998 = assay: Antiproliferative activity against human HCC 2998 cells assessed as cell growth inhibition at 10 uM incubated for 24 hrs by sulforhodamine B assay; type: functional; details: read-out: GI
SF-295 = assay: Antiproliferative activity against human SF-295 cells assessed as cell growth inhibition at 10 uM incubated for 24 hrs by sulforhodamine B assay; type: functional; details: read-out: GI
LOX IMVI = assay: Antiproliferative activity against human LOX IMVI cells assessed as cell growth inhibition at 10 uM incubated for 24 hrs by sulforhodamine B assay; type: functional; details: read-out: GI
MDA-MB-231 [5] = assay: Antiproliferative activity against human MDA-MB-231 cells assessed as reduction in cell viability incubated for 24 hrs by sulforhodamine B assay; type: functional, cell-based; details: MDA-MB-231, 24 h
NCI/ADR-RES = assay: Antiproliferative activity against human NCI-ADR-RES cells assessed as reduction in cell viability incubated for 24 hrs by sulforhodamine B assay
SK-MEL-5 = assay: Antiproliferative activity against human SK-MEL-5 cells assessed as cell growth inhibition at 10 uM incubated for 24 hrs by sulforhodamine B assay; type: functional; details: read-out: GI
T47D [6] = assay: Antiproliferative activity against human T47D cells assessed as reduction in cell viability incubated for 24 hrs by sulforhodamine B assay; type: functional, cell-based
Hs-578T = assay: Antiproliferative activity against human HS-578T cells assessed as cell growth inhibition at 10 uM incubated for 24 hrs by sulforhodamine B assay; type: functional; details: read-out: GI
CCRF-CEM = assay: Antiproliferative activity against human CCRF-CEM cells assessed as cell growth inhibition at 10 uM incubated for 24 hrs by sulforhodamine B assay; type: functional; details: read-out: GI
SNB-19 = assay: Antiproliferative activity against human SNB-19 cells assessed as cell growth inhibition at 10 uM incubated for 24 hrs by sulforhodamine B assay; type: functional; details: read-out: GI
MDA-MB-231 [7] = assay: Induction of apoptosis in human MDA-MB-231 cells assessed as late apoptotic cells measured after 48 hrs by Annexin-V-FITC/propidium iodide staining based flow cytometry (reference value: 0.91%); type: functional
MCF7 [8] = assay: Induction of apoptosis in human MCF cells assessed as viable cells measured after 48 hrs by Annexin-V-FITC/propidium iodide staining based flow cytometry (reference value: 98.15%); type: functional
DU-145 = assay: Antiproliferative activity against human DU-145 cells assessed as cell growth inhibition at 10 uM incubated for 24 hrs by sulforhodamine B assay; type: functional; details: read-out: GI
SK-MEL-2 = assay: Antiproliferative activity against human SK-MEL-2 cells assessed as cell growth inhibition at 10 uM incubated for 24 hrs by sulforhodamine B assay; type: functional; details: read-out: GI
UO-31 = assay: Antiproliferative activity against human UO-31 cells assessed as cell growth inhibition at 10 uM incubated for 24 hrs by sulforhodamine B assay; type: functional; details: read-out: GI

COc1ccc(OC)c(-c2nc(SCC(=O)c3ccc(Br)cc3)nc(Nc3ccc(S(N)(=O)=O)cc3)c2C#N)c1
inhibition of growth at 10 µM (OVCAR-8): 37.2% | Ki (Carbonic anhydrase 9): 86.8 nM | inhibition of growth at 10 µM (U-251): 62.4% | inhibition of growth at 10 µM (NCI-H23): 41.6% | inhibition of growth at 10 µM (SW-620): 64% | inhibition of growth at 10 µM (BT-549): 50.6% | inhibition of growth at 10 µM (A498): 73.6% | inhibition of growth at 10 µM (786-0): 58.6% | inhibition of growth at 10 µM (T47D [1]): 28.9% | inhibition of growth at 10 µM (IGROV-1): 45.3% | inhibition of growth at 10 µM (SK-MEL-28): 42.3% | inhibition of growth at 10 µM (SF-539): 71.6% | inhibition of growth at 10 µM (OVCAR-3): 49.4% | inhibition of growth at 10 µM (SNB-75): 77.8% | inhibition of growth at 10 µM (CAKI-1): 65.6% | inhibition of growth at 10 µM (SR): 86.1% | inhibition of growth at 10 µM (MOLT-4): 71.5% | inhibition of growth at 10 µM (SF-268): 43.3% | inhibition of growth at 10 µM (SN12C): 50.9% | inhibition of growth at 10 µM (HCT-15): 77.9% | Activity (MCF7 [2]): 3.96% | inhibition of growth at 10 µM (HCT-116): 84.6% | inhibition of growth at 10 µM (COLO 205): 31.6% | inhibition of growth at 10 µM (MCF7 [3]): 71.1% | inhibition of growth at 10 µM (NCI-H226): 50% | Activity (MCF7 [4]): 35.5% | inhibition of growth at 10 µM (HCC 2998): 29.1% | inhibition of growth at 10 µM (SF-295): 66.9% | inhibition of growth at 10 µM (LOX IMVI): 67.4% | IC50 (MDA-MB-231 [5]): 2400 nM | IC50 (NCI/ADR-RES): 33700 nM | inhibition of growth at 10 µM (SK-MEL-5): 44% | IC50 (T47D [6]): 2400 nM | inhibition of growth at 10 µM (Hs-578T): 86.6% | inhibition of growth at 10 µM (CCRF-CEM): 64.7% | inhibition of growth at 10 µM (SNB-19): 50.1% | Activity (MDA-MB-231 [7]): 5.2% | Activity (MCF7 [8]): 88.17% | inhibition of growth at 10 µM (DU-145): 44.9% | inhibition of growth at 10 µM (SK-MEL-2): 69.6% | inhibition of growth at 10 µM (UO-31): 40.8%
